Test results from PMC7456776, “The utility of a differentiated preclinical liver model, HepaRG cells, in investigating delayed toxicity via inhibition of mitochondrial-replication induced by fialuridine” (Toxicology and Applied Pharmacology, 2020).
Entries after “also recorded” stand apart in the source; their conditions may differ. Read-outs that look alike come from different tables or passages of the source.

Experiments:
HepaRG cells [1] = assay: Metabolic modification assay: dual ATP and cell viability (total cellular protein) assessment, extended dosing; format: cell-based, human
Method: In accordance with Biopredic international guidelines, undifferentiated HepaRG cells were seeded into clear flat bottomed 96 well (9000 cells/well) or Seahorse plates (4000 cells/well). They were grown for two weeks in growth media before their differentiation over 2 further weeks in differentiation media. Cells were kept at 37 °C, 5% CO2 in a humidified environment and received fresh, appropriate media twice a week. The fully differentiated cells were then used over the following four-week period, whilst being maintained in differentiation media. All experiments were performed using cells at passage number < 20.
(§1) Differentiated HepaRG cells were treated with 0–300 μM final concentrations of FIAU (1–4 weeks). FIAU was replaced in fresh differentiation media every 3–4 days. The final concentration of DMSO was at a constant 0.5% v/v in both HepaRG and HepG2 treatments. In all experiments dosing was performed in glucose supplemented media.
This was performed as previously described ([Kamalian et al., 2018]). […] IC50 values were calculated using Prism (GraphPad, California, USA) (Table 1) and criteria applied to identify a compound as a direct mitochondrial toxin.
Each experiment was performed on three or more independent occasions (n ≥ 3). IC50 values were calculated using GraphPad Prism 7 software, and were expressed as a mean ± standard deviation (SD). For all other statistical analysis comparing the values obtained from treated cells to vehicle control an ANOVA was performed, with a Dunnett or Tukey post hoc analysis where appropriate. P values lower than 0.05 were considered as statistically significant for both tests.

HepaRG cells [2] = assay: Seahorse XFe mitochondrial stress test (oxygen consumption, extracellular acidification); format: cell-based, human
Method: (§2) Briefly, following the dosing period, media was switched to unbuffered XF basal medium (175 μl, pH 7.4) supplemented with glucose (25 mM), L-glutamine (2 mM) and sodium pyruvate (1 mM) before incubating in a CO2 free incubator (37 °C). Oxygen consumption was measured by Seahorse XFe96 according to the previously described protocol ([Kamalian et al., 2018]).

HepG2 cells [3] = assay: Metabolic modification assay: ATP and total cellular protein, 72 h; format: cell-based, human; details: for Total cellular protein, % of vehicle control: HepG2, 300 μM, 3 days
Method: HepG2 cells were cultured and maintained in DMEM media as described previously ([Kamalian et al., 2015]).
as §1
This was performed as previously described ([Kamalian et al., 2018]). Briefly, following the dosing period, media was switched to either “glucose” or “galactose” media for 2 h prior to measuring cellular ATP content and lactate dehydrogenase (LDH) release as a marker of cell viability, both normalised to protein content. IC50 values were calculated using Prism (GraphPad, California, USA) (Table 1) and criteria applied to identify a compound as a direct mitochondrial toxin.

HepaRG cells [4] = assay: Mitochondrial DNA content by real-time PCR (MT-ND1 normalised to RNase P); format: cell-based, human
Method: (§3) DNA was extracted via QIAamp DNA Mini Kit (Qiagen, Crawley, UK). Relative levels of mtDNA copy number were determined by real-time pre-designed PCR Taqman detection kits designed to target the mitochondrial MT-ND1 gene and the nuclear RNase P gene, using TAQMAN GT Master Mix. PCR reactions were performed according to standard conditions for TaqMan: 95 °C for 10 min; 40 cycles at (95 °C 15 s, 60 °C 1 min). PCR assays were performed in duplicate for each DNA sample. Analysis was undertaken with mitochondrial ND-1 normalised to genomic RNase P and treated sample to the appropriate vehicle.

HepG2 cells [5] = assay: Mitochondrial DNA content by real-time PCR; format: cell-based, human; details: HepG2, 1.3–100 μM, up to 72 h
Method: as §3
Figure Supp 3: Mitochondrial DNA content in HepG2 cells exposed to FIAU (48 and 72 h). MtDNA content was measured by real-time PCR. HepG2 cells were exposed to FIAU (10 and 100 µM) at 48 h (black bar) and 72 h (grey bar). All results are presented as % of vehicle control. n=3.

HepG2 cells [6] = assay: Seahorse XFe mitochondrial stress test; format: cell-based, human; details: HepG2, 1.3–100 μM, up to 72 h
Method: as §2
Figure Supp 4: The effect of FIAU on mitochondrial respiratory activity of HepG2 cells. The bioenergetic parameters of HepG2 cells following exposure to FIAU (12 µM) were calculated using Seahorse respirometry at 48 h (black bar) and 72 h (grey bar). All results are presented as % of vehicle control. Key: dashed line marks vehicle control at 100 %. n=3.

[7] = tested on: mitochondrial respiratory complexes I, II, IV in permeabilised HepaRG cells; assay: In-situ mito substrate assay of individual respiratory complex activity in permeabilised cells (Seahorse); format: cell-based, human; details: 12 μM
From the text: The assessment of individual mitochondrial complex activity was preformed using the in-situ mito substrate assay in permeabilised cells using Seahorse Technology as previously described ([Ball et al., 2016]).

HepaRG cells [8] = assay: Cellular steatosis by Oil Red O staining; format: cell-based, human; details: 12 μM, 4 weeks
Method: Following drug treatment cells were washed twice in PBS and fixed in 4% paraformaldehyde (1 h, RT). Cells were then washed twice in ddH2O and incubated in isopropanol (IPA, 60% v/v, 5 min). Oil red O working solution (3:2 in ddH2O from the stock solution of 0.33% w/v in 100% IPA) was applied to the cells for 20 min. Background staining was removed by several washes with ddH2O and a 5 min wash in 60% v/v IPA. The intracellular lipid was extracted by 100% IPA after the wells were dried. The lipid content was quantified by reading the optical density at 540 nm on a Varioskan Flash (Thermo Fisher Scientific, USA).

HepaRG cells [9] = assay: Cellular L-lactate release; format: cell-based, human; details: 12 μM, four-week exposure
Method: Following incubation with drug the media from cells was transferred to a fresh 96-well plate and L-lactate levels were measured using an L-lactate assay kit as per the manufacturer's instructions.

HepaRG cells [10] = details: human, 12 μM
Method: Samples were prepared for transmission electron microscopy (TEM) in 3 cm dishes as follows. Cells were fixed in 2.5% (w/v) glutaraldehyde in 0.1 M phosphate buffer (pH 7.4) before staining with reduced osmium (2% (w/v) OsO4, 1.5% (w/v) potassium ferrocyanide in ddH2O), 1% (w/v) thiocarbohydrazide, 2% OsO4 (w/v in ddH20), then 1% (w/v) aqueous uranyl acetate overnight at 4 °C. The next day samples were finally stained with Walton's lead aspartate (0.02 M lead nitrate, 0.03 M aspartic acid, pH 5.5). To prevent precipitation artefacts the cells were washed copiously with ddH2O between each staining step. […] Dehydration was in a graded ethanol series before filtration and embedding in medium premix resin (TAAB, Reading, UK).
For TEM, 70–74 nm serial sections were cut using a UC6 ultra microtome (Leica Microsystems, Wetzlar, Germany) and collected on Formvar (0.25% (w/v) in chloroform, TAAB, Reading, UK) coated Gilder 200 mesh copper grids (GG017/C, TAAB, Reading, UK). […]
Resultant TEM images were analysed using Image J software to measure intracellular mitochondrial features (NIH, USA). […] In brief, total mitochondria number per cell was counted as well as mitochondria area (μM^2) alongside cytosol area (calculated as total cell area minus nuclear area and vacuole area μM^2).

[11] = set-up: method as in Bowsher et al., 1994; details: healthy volunteers, 5 mg single dose; ref Bowsher et al., 1994; cited from earlier work
PHH spheroids = tested on: PHH spheroids; set-up: method as in Bell et al., 2016; details: 3D PHH spheroids, 7 days; ref Bell et al., 2016; cited from earlier work
HepG2 cells [12] = tested on: HepG2 cells; set-up: method as in Colacino et al., 1994; details: 6 days of treatment, ref Colacino et al., 1994; cited from earlier work
HepG2 cells [13] = tested on: HepG2 cells; set-up: method as in Colacino et al., 1994; details: 9 days, 30 μM, ref Colacino et al., 1994; cited from earlier work
patients = tested on: patients; set-up: method as in McKenzie et al., 1995; details: ref McKenzie et al., 1995, cited from earlier work

Structure (SMILES): O=c1[nH]c(=O)n([C@@H]2O[C@H](CO)[C@@H](O)[C@H]2F)cc1I [FIAM]
- Cytotoxic effects (HepaRG cells [1]; HepaRG cells, up to 4 weeks): no cytotoxic effects
- Cellular ATP content or cell viability compared to vehicle control (HepaRG cells [1]; HepaRG, 4-week incubation period): no significant differences; also recorded: did not induce any decrease
- Mitochondrial respiration (HepaRG cells [2]; 2 weeks, 12 μM and up to 100 μM): did not reduce mitochondrial respiration

Structure (SMILES): O=c1[nH]c(=O)n([C@@H]2O[C@H](CO)[C@@H](O)[C@@H]2F)cc1I [FIAU, fialuridine]
- Concentration at which toxic effects were observed (HepaRG cells [1]; HepaRG, extended dosing, 2 weeks): around 10 μM
- IC50 (HepaRG cells [1]; HepaRG, wk 3 exposure, galactose media, read-out: IC50-ATP ± S.D., Galactose): 5.7 ± 2.8 µM
- IC50 (HepaRG cells [1]; Homo sapiens, HepaRG, wk 1, galactose media, total cellular protein, read-out: IC50-viability ± S.D., Galactose): 101 ± 27 µM
- IC50 (HepaRG cells [1]; Homo sapiens, HepaRG, wk 1, glucose media, total cellular protein, read-out: IC50-viability ± S.D., Glucose): 118 ± 42 µM
- IC50 (HepaRG cells [1]; Homo sapiens, HepaRG, wk 1 exposure, galactose media, read-out: IC50-ATP ± S.D., Galactose): 103 ± 13.8 µM
- IC50 (HepaRG cells [1]; Homo sapiens, HepaRG, wk 1 exposure, glucose media, read-out: IC50-ATP ± S.D., Glucose): 112 ± 32.8 µM
- IC50 (HepaRG cells [1]; Homo sapiens, HepaRG, wk 2, galactose media, total cellular protein, read-out: IC50-viability ± S.D., Galactose): 7.3 ± 3.8 µM
- IC50 (HepaRG cells [1]; Homo sapiens, HepaRG, wk 2, glucose media, total cellular protein, read-out: IC50-viability ± S.D., Glucose): 26.1 ± 9.3 µM
- IC50 (HepaRG cells [1]; Homo sapiens, HepaRG, wk 2 exposure, glucose media, read-out: IC50-ATP ± S.D., Glucose): 16.8 ± 2.3 µM
- IC50 (HepaRG cells [1]; Homo sapiens, HepaRG, wk 3, galactose media, total cellular protein, read-out: IC50-viability ± S.D., Galactose): 15.5 ± 3.4 µM
- IC50 (HepaRG cells [1]; Homo sapiens, HepaRG, wk 3, glucose media, total cellular protein, read-out: IC50-viability ± S.D., Glucose): 14.2 ± 1.3 µM
- IC50 (HepaRG cells [1]; Homo sapiens, HepaRG, wk 3 exposure, galactose media, read-out: IC50-ATP ± S.D., Galactose): 5 µM
- IC50 (HepaRG cells [1]; Homo sapiens, HepaRG, wk 3 exposure, glucose media, read-out: IC50-ATP ± S.D., Glucose): 5.4 ± 2.3 µM
- IC50 (HepaRG cells [1]; Homo sapiens, HepaRG, wk 4, galactose media, total cellular protein, read-out: IC50-viability ± S.D., Galactose): 3.6 ± 2.8 µM
- IC50 (HepaRG cells [1]; Homo sapiens, HepaRG, wk 4, glucose media, total cellular protein, read-out: IC50-viability ± S.D., Glucose): 7.6 ± 3.3 µM
- IC50 (HepaRG cells [1]; Homo sapiens, HepaRG, wk 4 exposure, galactose media, read-out: IC50-ATP ± S.D., Galactose): 7.3 ± 0.5 µM
- IC50 (HepaRG cells [1]; Homo sapiens, HepaRG, wk 4 exposure, glucose media, read-out: IC50-ATP ± S.D., Glucose): 4.9 ± 1.5 µM
- Total cellular protein, % of vehicle control (HepG2 cells [3]; galactose media): 40.5 ± 13.4%
- Total cellular protein, % of vehicle control (HepG2 cells [3]; glucose media): 49.0 ± 22.7%
- Classification as mitotoxin (HepG2 cells [3]; HepG2 cells, up to 3 days): cannot be classified as a mitotoxin
- mtDNA content, % of vehicle control (HepaRG cells [4]; 4 μM, week 1): 59.2 ± 26.5%
- mtDNA content, % of vehicle control (HepaRG cells [4]; 10 μM, 1 week): 23.5 ± 11.9%
- mtDNA content, % of vehicle control (HepaRG cells [4]; 10 μM, 4 weeks): 5.8 ± 3.0%
- Mitochondrial copy number (HepG2 cells [5]): no significant differences in mitochondrial copy number
- Parameters of oxygen consumption (BR, ALR, MR, SRC, PL, CE) (HepaRG cells [2]; 12 μM, 1 week): no significant changes
- ATP-linked respiration (ALR), % of vehicle control (HepaRG cells [2]; 12 μM, 2 weeks): 77.4 ± 21.5%
- Basal respiration (BR), % of vehicle control (HepaRG cells [2]; 12 μM, 2 weeks): 85.7 ± 28.1%
- Maximal respiration (MR), % of vehicle control (HepaRG cells [2]; 12 μM, 2 weeks): 72.0 ± 19.1%
- Proton leak (PL) and coupling efficiency (CE) (HepaRG cells [2]; 12 μM, 2 weeks): remained unchanged
- Spare respiratory capacity (SRC), % of vehicle control (HepaRG cells [2]; 12 μM, 2 weeks): 65.9 ± 15.5%
- Extracellular acidification rate (HepaRG cells [2]; over 2 weeks of treatment): no dose- or time-dependent increases
- Bioenergetic parameters (HepG2 cells [6]): no significant differences in bioenergetic parameters
- Complex I activity, % of vehicle control ([7]; 2 weeks): 26.9 ± 6.9%
- Complex II activity, % of vehicle control ([7]; 2 weeks): 35.5 ± 17.7%
- Complex IV activity, % of vehicle control ([7]; 2 weeks): 36.0 ± 15.9%
- Complex I activity, % of vehicle control ([7]; week 1): 67.4 ± 13.5%
- Complex II activity, % of vehicle control ([7]; week 1): 70.3 ± 9.8%
- Accumulation of intracellular lipids (oil red O) (HepaRG cells [8]): no accumulation of intracellular lipids
- Extracellular L-lactate in cell supernatant (HepaRG cells [9]): no significant increase in L-lactate
- Individual mean mitochondrial area (HepaRG cells [10]): 0.19 ± 0.01 μm^2
- Number of mitochondria (HepaRG cells [10]): 0.80 ± 0.20 mitochondria/μm^2 of cytosol
- Cmax [11]: 600 nM
- IC50 (PHH spheroids): 0.7 µM
- TC50 (Toxicity Concentration) (HepG2 cells [12]): 35 µM
- mtDNA replication (HepG2 cells [13]): decreases
- Adverse effects in clinical trial (patients; extended trial period): five deaths from acute liver failure
- Time at which toxicity became apparent (patients; week of treatment): > 13 week
